Assay results: paper PMC12040169 (PLOS Biology, 2025)

Assay: in vitro
Settings: human, hela cells, % viability

With Cc1nc(CC(=O)N2[C@H]3CCCCCN(C)[C@@]3(C)C[C@H]2c2ccccc2)cs1 [CBK286104] as the compound, how does the viability at 28.5 h, 10 µM read?
Its viability at 28.5 h, 10 µM is 109%.

For Cc1cc(C)nc(N2CCC(CC(=O)N(C)CC(C)c3ccccc3)CC2)n1 (stereo not shown) [CBK286105], which viability at 28.5 h, 10 µM is on record?
Its viability at 28.5 h, 10 µM is 83.5%.

For COc1ccc(-c2cccc(C3CCCN(C(=O)c4ccc(F)cc4)C3)n2)cc1 (stereo not shown) [CBK286107], which viability at 28.5 h, 10 µM is on record?
The viability at 28.5 h, 10 µM was 99.3%.

Which viability at 28.5 h, 10 µM does the source give for c1cc(C2CCCCN2Cc2ccc3[nH]ccc3c2)nc(Nc2nccs2)n1 (stereo not shown) [CBK286109] here?
Its viability at 28.5 h, 10 µM is 83.6%.

Which viability at 28.5 h, 10 µM does the source give for CC(C)(CNC(=O)Cn1cc(C(=O)NC2CCCCC2)ccc1=O)c1cccc(F)c1 [CBK286110] here?
The viability at 28.5 h, 10 µM was 88.4%.

With CC(=O)Nc1ccc(C(=O)N2CCC(c3cccc(Cc4ccccc4Cl)n3)CC2)cc1 [CBK286111] as the compound, how does the viability at 28.5 h, 10 µM read?
The viability at 28.5 h, 10 µM was 96.2%.

Which viability at 28.5 h, 10 µM does the source give for Cc1cccc(CCNC(=O)c2cccn(CC(=O)N(C)C3CCCCC3)c2=O)c1 [CBK286113] here?
The viability at 28.5 h, 10 µM was 104%.

With CCC(c1ccc(F)cc1)N(C)C(=O)Cn1cccc(C(=O)NC2CCCCC2)c1=O (stereo not shown) [CBK286114] as the compound, how does the viability at 28.5 h, 10 µM read?
Its viability at 28.5 h, 10 µM is 96.4%.

Which viability at 28.5 h, 10 µM does the source give for CCn1cc(NC(=O)CC2CCN(Cc3cccc(C(F)(F)F)c3)CC2)cn1 [CBK286118] here?
Its viability at 28.5 h, 10 µM is 89.9%.

For CC(=O)N1CCCC[C@H]2[C@H]1C[C@@H](c1ccccc1)N2C(=O)CN1CCCCCC1 [CBK286120], which viability at 28.5 h, 10 µM is on record?
Its viability at 28.5 h, 10 µM is 117%.

Which viability at 28.5 h, 10 µM does the source give for CC(C)c1ccc(C(C)NC(=O)Cn2cc(C(=O)NC3CCCC3)ccc2=O)cc1 (stereo not shown) [CBK286121] here?
Its viability at 28.5 h, 10 µM is 103%.

For CC(CNC(=O)c1cccn(CC(=O)Nc2ccc(F)cc2)c1=O)N1CCCCCC1 (stereo not shown) [CBK286123], which viability at 28.5 h, 10 µM is on record?
The viability at 28.5 h, 10 µM was 97.5%.

For Cc1ccccc1Cc1cccc(C2CCN(S(=O)(=O)c3cn[nH]c3)CC2)n1 [CBK286125], which viability at 28.5 h, 10 µM is on record?
The viability at 28.5 h, 10 µM was 90.8%.

Which viability at 28.5 h, 10 µM does the source give for Cc1nn(C)cc1S(=O)(=O)N1CCCC(c2cccc(Cc3ccccc3Cl)n2)C1 (stereo not shown) [CBK286127] here?
The viability at 28.5 h, 10 µM was 106%.

With O=C1N(CCc2ccccc2)CC=CCC12CN(Cc1ccc3[nH]ccc3c1)CCO2 (stereo not shown) [CBK286130] as the compound, how does the viability at 28.5 h, 10 µM read?
Its viability at 28.5 h, 10 µM is 105%.

For Cc1cccc(Cc2cccc(C3CCCN(S(=O)(=O)c4cn(C)nc4C)C3)n2)c1 (stereo not shown) [CBK286131], which viability at 28.5 h, 10 µM is on record?
Its viability at 28.5 h, 10 µM is 101%.

With Cc1cccnc1Nc1ccc(C2CCCCN2Cc2ccc3nccnc3c2)cn1 (stereo not shown) [CBK286133] as the compound, how does the viability at 28.5 h, 10 µM read?
Its viability at 28.5 h, 10 µM is 89.8%.

For CC(=O)Nc1ccc(C(=O)N2CCCC(c3cccc(Cc4ccc(Cl)cc4)n3)C2)cc1 (stereo not shown) [CBK286134], which viability at 28.5 h, 10 µM is on record?
Its viability at 28.5 h, 10 µM is 99.9%.

Which viability at 28.5 h, 10 µM does the source give for COc1ccc(CC(=O)N2CCCC(c3nccnc3-c3cccc(C)c3)C2)cc1 (stereo not shown) [CBK286137] here?
The viability at 28.5 h, 10 µM was 94.1%.

Which viability at 28.5 h, 10 µM does the source give for COc1ccccc1Cc1cccc(C2CCCN2C(=O)Cc2c[nH]c3ccccc23)n1 (stereo not shown) [CBK286139] here?
Its viability at 28.5 h, 10 µM is 95.2%.

For Cc1ccccc1Cc1cccc(C2CCN(C(=O)c3ccc(F)cc3)CC2)n1 [CBK286140], which viability at 28.5 h, 10 µM is on record?
The viability at 28.5 h, 10 µM was 88.4%.

For COc1cccc(Cc2cccc(C3CCN(C(=O)Cc4c[nH]c5ccccc45)CC3)n2)c1 [CBK286145], which viability at 28.5 h, 10 µM is on record?
The viability at 28.5 h, 10 µM was 93.1%.

Which viability at 28.5 h, 10 µM does the source give for COc1cccc(Cc2cccc(C3CCN(C(=O)Cc4ccccc4)CC3)n2)c1 [CBK286147] here?
The viability at 28.5 h, 10 µM was 96.9%.

Which viability at 28.5 h, 10 µM does the source give for Cc1cccc(-c2cncc(C3CCCN(C(=O)Cc4c[nH]c5ccccc45)C3)n2)c1 (stereo not shown) [CBK286149] here?
The viability at 28.5 h, 10 µM was 84.1%.

For Cn1cc(CN2CCC(c3cncc(-c4cccc(C(F)(F)F)c4)n3)CC2)cn1 [CBK286150], which viability at 28.5 h, 10 µM is on record?
Its viability at 28.5 h, 10 µM is 78.4%.

With O=C(CN1CCC(c2cncc(-c3cccc(C(F)(F)F)c3)n2)CC1)N1CCCC1 [CBK286152] as the compound, how does the viability at 28.5 h, 10 µM read?
The viability at 28.5 h, 10 µM was 94.3%.

Which viability at 28.5 h, 10 µM does the source give for COc1cccc(-c2cncc(C3CCN(C(=O)CCOc4ccccc4)CC3)n2)c1 [CBK286153] here?
The viability at 28.5 h, 10 µM was 88.9%.

For Cc1ccccc1-c1cncc(C2CCN(C(=O)CCOc3ccccc3)CC2)n1 [CBK286154], which viability at 28.5 h, 10 µM is on record?
The viability at 28.5 h, 10 µM was 99%.

Which viability at 28.5 h, 10 µM does the source give for CCn1ncc(S(=O)(=O)N2CCCC(c3cccc(-c4cccc(OC)c4)n3)C2)c1C (stereo not shown) [CBK286155] here?
Its viability at 28.5 h, 10 µM is 96.8%.

For CCOc1ccc(NC(c2ccccc2)c2cc3cc(OC)ccc3[nH]c2=O)cc1 (stereo not shown) [CBK286157], which viability at 28.5 h, 10 µM is on record?
The viability at 28.5 h, 10 µM was 81.7%.

For COc1ccc(-c2ccccc2)cc1NCc1cc2cc(OC)c(OC)cc2[nH]c1=O [CBK286160], which viability at 28.5 h, 10 µM is on record?
The viability at 28.5 h, 10 µM was 99.5%.

With Cc1ccc2nc(O)c(CNc3ccc(-c4nc5cc(C)ccc5[nH]4)cc3)cc2c1 [CBK286161] as the compound, how does the viability at 28.5 h, 10 µM read?
The viability at 28.5 h, 10 µM was 89.7%.

With Cc1ccc2cc(CNc3ccc4c(c3)-c3ccccc3S(=O)(=O)N4)c(=O)[nH]c2c1 [CBK286163] as the compound, how does the viability at 28.5 h, 10 µM read?
Its viability at 28.5 h, 10 µM is 70.6%.

With Cc1cc2cc(CNc3cc(-c4ccccc4)ccc3O)c(=O)[nH]c2cc1C [CBK286164] as the compound, how does the viability at 28.5 h, 10 µM read?
Its viability at 28.5 h, 10 µM is 82.7%.

Which viability at 28.5 h, 10 µM does the source give for COc1ccc(CCNC2CCN(Cc3ccccc3)CC2c2ccccc2)cc1OC (stereo not shown) [CBK286166] here?
The viability at 28.5 h, 10 µM was 92.8%.

With O=C(C1c2ccccc2Oc2ccccc21)N1C2CCC1CC(O)(c1ccco1)C2 (stereo not shown) [CBK286169] as the compound, how does the viability at 28.5 h, 10 µM read?
Its viability at 28.5 h, 10 µM is 93.8%.

For COc1cccc(CN2CCN(CC(=O)N3CCCC3)[C@@H](C)C2)c1 [CBK286171], which viability at 28.5 h, 10 µM is on record?
Its viability at 28.5 h, 10 µM is 78.1%.

For CC(C)[C@H]1CN(Cc2ccccc2F)CCN1C(=O)Cn1ncc2ccccc2c1=O [CBK286172], which viability at 28.5 h, 10 µM is on record?
The viability at 28.5 h, 10 µM was 82.2%.

For CC[C@@H](Cn1ncc2ccccc2c1=O)NC(=O)CC1c2ccccc2Oc2ccccc21 [CBK286174], which viability at 28.5 h, 10 µM is on record?
Its viability at 28.5 h, 10 µM is 89.5%.

For O=c1oc2ccccc2n1C1CCN(Cc2nc3ccccc3n2Cc2ccccc2)CC1 [CBK286176], which viability at 28.5 h, 10 µM is on record?
The viability at 28.5 h, 10 µM was 102%.

For Cc1nc2c(c(N3CCN(c4ccc(O)cc4)CC3)n1)CN(Cc1ccccc1)CC2 [CBK286177], which viability at 28.5 h, 10 µM is on record?
Its viability at 28.5 h, 10 µM is 90.2%.

Which viability at 28.5 h, 10 µM does the source give for O=c1n(Cc2ccccc2F)nc2nnc(-c3ccccc3)c(-c3ccccc3)n12 [CBK286179] here?
Its viability at 28.5 h, 10 µM is 80.9%.

With COc1ccc(Cn2nc3nnc(-c4ccccc4)c(-c4ccccc4)n3c2=O)cc1 [CBK286180] as the compound, how does the viability at 28.5 h, 10 µM read?
Its viability at 28.5 h, 10 µM is 88.8%.

For COc1ccc(Cn2nc3nnc(-c4ccc(F)cc4)c(-c4ccc(F)cc4)n3c2=O)cc1 [CBK286183], which viability at 28.5 h, 10 µM is on record?
Its viability at 28.5 h, 10 µM is 107%.

For COc1ccccc1Cn1nc2nnc(-c3ccc(F)cc3)c(-c3ccc(F)cc3)n2c1=O [CBK286184], which viability at 28.5 h, 10 µM is on record?
The viability at 28.5 h, 10 µM was 97.7%.

Which viability at 28.5 h, 10 µM does the source give for COc1ccccc1Cn1nc2nnc(-c3ccccc3)c(-c3ccccc3)n2c1=O [CBK286185] here?
Its viability at 28.5 h, 10 µM is 88.6%.

With Cc1nc2cc(-c3nccn3C)nn2c(N2CCN(c3ccc4c(c3)OCCO4)CC2)c1C [CBK286186] as the compound, how does the viability at 28.5 h, 10 µM read?
Its viability at 28.5 h, 10 µM is 90.4%.

Which viability at 28.5 h, 10 µM does the source give for COc1ccc(N2CCN(c3cc(C)nc4cc(-c5nccn5C)nn34)CC2)cc1 [CBK286187] here?
Its viability at 28.5 h, 10 µM is 87.8%.

With Cc1cc(N2CCN(c3ccc(O)cc3)CC2)n2nc(-c3nccn3C)cc2n1 [CBK286188] as the compound, how does the viability at 28.5 h, 10 µM read?
Its viability at 28.5 h, 10 µM is 91.2%.

For COc1cc2c(cc1OC)C1c3ccccc3NC(c3ccc(F)cc3)N1CC2 (stereo not shown) [CBK286191], which viability at 28.5 h, 10 µM is on record?
The viability at 28.5 h, 10 µM was 102%.

With COc1cc2c(cc1OC)C1c3ccccc3N(Cc3ccccc3)C(=O)N1CC2 (stereo not shown) [CBK286192] as the compound, how does the viability at 28.5 h, 10 µM read?
Its viability at 28.5 h, 10 µM is 86.8%.

For COc1cc2c(cc1OC)C1c3ccccc3NC(c3ccc(C)cc3)N1CC2 (stereo not shown) [CBK286195], which viability at 28.5 h, 10 µM is on record?
Its viability at 28.5 h, 10 µM is 72.7%.

With Fc1ccc(CN(Cc2ccco2)C2CCN(c3ccc4c(c3)OCO4)CC2)cc1 [CBK286197] as the compound, how does the viability at 28.5 h, 10 µM read?
Its viability at 28.5 h, 10 µM is 88.7%.

For COCC(=O)N1CCc2sccc2C1c1ccc(NC(=O)c2ccco2)cc1 (stereo not shown) [CBK286200], which viability at 28.5 h, 10 µM is on record?
The viability at 28.5 h, 10 µM was 95.6%.

With O=C(CN1C(=O)[C@@H]2CCCN2c2ncccc21)NC(c1ccccc1)c1ccccc1 [CBK286205] as the compound, how does the viability at 28.5 h, 10 µM read?
The viability at 28.5 h, 10 µM was 121%.

Which viability at 28.5 h, 10 µM does the source give for O=C(CN1C(=O)[C@H]2CCCN2c2ncccc21)NCCc1c[nH]c2ccccc12 [CBK286206] here?
The viability at 28.5 h, 10 µM was 107%.

For O=C(CCc1ccccc1)N1CCCC1c1cccc(Cc2ccccc2F)n1 (stereo not shown) [CBK286208], which viability at 28.5 h, 10 µM is on record?
The viability at 28.5 h, 10 µM was 118%.

For O=S(=O)(c1ccc(F)cc1)N1CCCC1c1cccc(Cc2cccc(F)c2)n1 (stereo not shown) [CBK286209], which viability at 28.5 h, 10 µM is on record?
The viability at 28.5 h, 10 µM was 93.9%.
